Experimental data reported in patent publication US10723770B2, “Crystal structure of the large ribosomal subunit from S. aureus” (Yeda Research and Development Co. Ltd., priority 2015, dated 2020).
In brackets after ≈: the same amount, converted by molar mass.

Experiments:
Staphylococcus aureus = conditions: cited from earlier work
SA ribosomes = experiment: S. aureus cell free in vitro transcription-translation assay (luciferase reporter); type: biochemical, Staphylococcus aureus; conditions: for IC50, inhibition of protein synthesis: luciferase luminescence, S. aureus system
Protocol: The SA ribosomes activity was tested and its level was determined in a bacterial coupled transcription/translation assay system which measures the expression of the luciferase gene, according to Murray, R. W. et al. [Antimicrobial agents and chemotherapy, 2001, 45(6), p. 1900-1904]. Briefly, the luciferase gene was inserted into plasmid with T7 RNA polymerase promoter. The 30 μl reaction's volume contained 160 mM Hepes-KOH buffer (pH 7.5), 6.5% PEG 8K, 0.074 mg/ml tyrosine, 1.3 mM ATP, 0.86 mM CTP, GTP and UTP, 208 mM potassium glutamate, 83 mM creatine phosphate, 28 mM NH4OAc, 0.663 mM cAMP, 1.8 mM DTT, 0.036 mg/ml folinic acid, 0.174 mg/ml E. coli tRNA mix, 1 mM amino acid, 0.25 mg/ml creatine kinase, 0.027 mg/ml T7 RNA polymerase, ribosome free E. coli cell free extract, 300 nM of SA ribosomes and 0.003 μg/μl luciferase plasmid.
The reaction mixture was incubated at 37° C. for 1 hour, and erythromycin was added at a final concentration of 8 μM in order to terminate the reaction. 50 μl of Luciferin Assay Reagent (LAR, Promega) was added to the mixture and luminescence was measured in order to quantify the reaction's products.
FIGS. 20A-B present the results of in vitro transcription-translation cell-free inhibition assays of bacterial protein synthesis, wherein the inhibitory effect on protein expression in S. aureus system of BC-3205 is presented in FIG. 20A and of lefamulin is presented in FIG. 20B. The activity of the reporter protein (luciferase) in the presence of various concentrations of BC-3205 and lefamulin is shown as arbitrary unit of luminescence [a.u.].

SMILES | MIC against SA (Staphylococcus aureus) [µg/mL] | potency against SA relative to linezolid (Staphylococcus aureus; more potent than linezolid) | IC50, inhibition of protein synthesis (SA ribosomes) [µg/mL] | IC50 against S. aureus ribosome compared to E. coli ones (SA ribosomes; in words only, data not shown)
C=C[C@]1(C)C[C@@H](OC(=O)CS[C@H]2CCCN(C(=O)[C@H](N)C(C)C)C2)[C@]2(C)[C@H](C)CC[C@]3(CCC(=O)[C@H]32)[C@@H](C)[C@@H]1O [BC-3205] | 0.06 (≈ 0.104 µM) | 16-32 fold | 0.42 | –
C=C[C@]1(C)C[C@@H](OC(=O)CS[C@@H]2CC[C@@H](N)C[C@H]2O)[C@]2(C)[C@H](C)CC[C@]3(CCC(=O)[C@H]32)[C@@H](C)[C@@H]1O [lefamulin] | – | – | 0.09 | –
CCC[C@@H]1C[C@@H](C(=O)N[C@@H]([C@H]2O[C@H](SC)[C@H](O)[C@@H](O)[C@H]2O)[C@@H](C)O)N(C)C1 [lincomycin] | – | – | – | super low IC50
